Reference: patent publication EP4596574A1, “GLP-1/GCG/GIP TRIPLE-RECEPTOR AGONIST AND USE THEREOF” (Sunshine Lake Pharma Co., Ltd., priority 2022, dated 2024)
Starred links: 1 amine or outer side, 2 acyl side, 3 side chain; linkers in the order of their positions; H or OH if unused. Non-standard residues stand in square brackets, D forms with d. Residues, ends and D or L forms follow the SMILES beside them. Groups on a side chain read outwards from the residue. *: point of attachment. C20 diacid = O=C(O)CCCCCCCCCCCCCCCCCCC(=O)*; αMePhe(2-F) = C[C@](N)(Cc1ccccc1F)C(=O)O; γGlu = O=C(O)[C@H](CCC(=O)[*:2])N[*:1]; AEEA = NCCOCCOCC(=O)O; Aib = CC(C)(N)C(=O)O

Experiments:
Format in all cases: cell-based
GIPR = target: T1, GIPR (Homo sapiens, UniProt P48546); test: In vitro cell activity, cAMP production in HEK293 cells expressing GIPR; settings: HEK293-GIPR cells, cAMP; read-out: GIPR (EC50)
T1 construct: expressed in transfected cells; host or cells: HEK293 (HEK293-GIPR)
T1 sequence (P48546 22-466): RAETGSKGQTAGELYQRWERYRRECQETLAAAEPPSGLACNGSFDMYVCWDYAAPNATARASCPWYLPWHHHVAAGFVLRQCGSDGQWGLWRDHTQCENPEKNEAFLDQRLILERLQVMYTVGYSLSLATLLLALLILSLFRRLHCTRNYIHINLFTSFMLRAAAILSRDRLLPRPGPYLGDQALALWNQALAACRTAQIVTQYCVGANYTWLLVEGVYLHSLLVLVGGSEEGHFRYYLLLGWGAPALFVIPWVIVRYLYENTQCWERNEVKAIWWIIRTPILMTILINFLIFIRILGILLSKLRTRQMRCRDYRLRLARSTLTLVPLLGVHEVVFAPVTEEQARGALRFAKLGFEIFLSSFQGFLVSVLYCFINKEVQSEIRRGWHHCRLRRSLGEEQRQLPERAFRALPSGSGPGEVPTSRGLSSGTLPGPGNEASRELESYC
Outline: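 HEK293 cells expressing human GIPR, thawed and diluted to 4×10^5 cells/mL, are stimulated with test compound. cAMP is measured by HTRF competition between cAMP-d2 and anti-cAMP cryptate. EC50 comes from a four-parameter nonlinear fit of signal ratio against concentration.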

GLP-1R = target: T2, GLP-1R (Homo sapiens, UniProt P43220); test: In vitro cell activity, cAMP production in HEK293 cells expressing GLP-1R; settings: HEK293-GLP-1R cells, cAMP; read-out: GLP-1R (EC50)
T2 construct: expressed in transfected cells; host or cells: HEK293 (HEK293-GLP-1R)
Outline: (§1)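 cAMP output read as 665/620 nm HTRF ratio after adding cAMP-d2 plus anti-cAMP cryptate and incubating 1 h at room temperature in the dark or overnight at 4 °C. Cells: HEK293 expressing human GLP-1R or GCGR, plated from a 4×10^5 cells/mL suspension. Four-parameter fit gives EC50.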

GCGR = target: T3, GCGR (Homo sapiens, UniProt P47871); test: In vitro cell activity, cAMP production in HEK293 cells expressing GCGR; settings: HEK293-GCGR cells, cAMP; read-out: GCGR (EC50)
T3 construct: expressed in transfected cells; host or cells: HEK293 (HEK293-GCGR)
Outline: as §1

T2 sequence (P43220 24-463, species assumed): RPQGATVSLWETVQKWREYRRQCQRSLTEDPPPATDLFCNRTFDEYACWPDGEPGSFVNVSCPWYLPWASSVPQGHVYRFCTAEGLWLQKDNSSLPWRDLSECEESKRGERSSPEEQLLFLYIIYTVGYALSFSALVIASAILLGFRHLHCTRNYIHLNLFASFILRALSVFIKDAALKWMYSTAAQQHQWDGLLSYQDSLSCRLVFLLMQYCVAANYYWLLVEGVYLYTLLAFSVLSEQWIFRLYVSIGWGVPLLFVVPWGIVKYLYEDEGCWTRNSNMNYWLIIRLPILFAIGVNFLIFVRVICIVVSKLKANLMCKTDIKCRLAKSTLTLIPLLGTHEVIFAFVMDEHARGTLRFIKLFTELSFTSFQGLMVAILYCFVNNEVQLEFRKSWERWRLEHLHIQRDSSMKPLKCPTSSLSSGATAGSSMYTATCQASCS
T3 sequence (P47871 26-477, species assumed): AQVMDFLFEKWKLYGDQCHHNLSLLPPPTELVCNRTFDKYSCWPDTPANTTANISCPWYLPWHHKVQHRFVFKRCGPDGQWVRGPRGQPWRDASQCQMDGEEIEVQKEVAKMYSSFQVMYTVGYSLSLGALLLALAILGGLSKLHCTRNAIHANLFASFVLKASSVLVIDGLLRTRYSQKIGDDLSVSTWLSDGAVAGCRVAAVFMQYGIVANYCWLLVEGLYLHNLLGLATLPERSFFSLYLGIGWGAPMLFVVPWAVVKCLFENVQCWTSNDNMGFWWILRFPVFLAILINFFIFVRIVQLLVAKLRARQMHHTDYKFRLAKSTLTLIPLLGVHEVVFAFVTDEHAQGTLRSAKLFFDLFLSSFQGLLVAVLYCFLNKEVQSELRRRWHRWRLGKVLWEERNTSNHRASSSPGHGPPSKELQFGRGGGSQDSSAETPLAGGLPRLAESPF

| SMILES | EC50 (GIPR) [nM] | EC50 (GLP-1R) [nM] | EC50 (GCGR) [nM] |
| --- | --- | --- | --- |
| CC[C@H](C)[C@H](NC(=O)[C@H](CCCCN)NC(=O)[C@H](CC(=O)O)NC(=O)[C@H](CCCCNC(=O)COCCOCCNC(=O)CC[C@H](NC(=O)CCCCCCCCCCCCCCCCCCC(=O)O)C(=O)O)NC(=O)[C@H](CC(C)C)NC(=O)[C@@H](NC(=O)[C@H](CO)NC(=O)[C@H](Cc1ccc(O)cc1)NC(=O)[C@H](CC(=O)O)NC(=O)[C@H](CO)NC(=O)[C@@H](NC(=O)[C@](C)(Cc1ccccc1F)NC(=O)[C@@H](NC(=O)CNC(=O)[C@H](CCC(N)=O)NC(=O)C(C)(C)NC(=O)[C@@H](N)Cc1ccc(O)cc1)[C@@H](C)O)[C@@H](C)O)[C@@H](C)CC)C(=O)N[C@@H](C)C(=O)N[C@@H](CCC(N)=O)C(=O)NC(C)(C)C(=O)N[C@@H](C)C(=O)N[C@@H](Cc1ccccc1)C(=O)N[C@H](C(=O)N[C@@H](CCC(=O)O)C(=O)N[C@@H](Cc1ccc(O)cc1)C(=O)N[C@@H](CC(C)C)C(=O)N[C@@H](CC(C)C)C(=O)N[C@@H](C)C(=O)NCC(=O)NCC(=O)N1CCC[C@H]1C(=O)N[C@@H](CO)C(=O)N[C@@H](CO)C(=O)NCC(=O)N[C@@H](C)C(=O)N1CCC[C@H]1C(=O)N1CCC[C@H]1C(=O)N1CCC[C@H]1C(=O)N[C@@H](CO)C(N)=O)[C@@H](C)CC [HEC-PT138] (H-Y[Aib]QGT[αMePhe(2-F)]TSDYSILK([AEEA-γGlu-C20 diacid])DKIAQ[Aib]AFIEYLLAGGPSSGAPPPS-NH2) | 0.0649 | 0.271 | 0.175 |
| CC[C@H](C)[C@H](NC(=O)[C@H](CCC(=O)O)NC(=O)[C@H](CC(=O)O)NC(=O)[C@H](CC(C)C)NC(=O)[C@H](CC(C)C)NC(=O)[C@@H](NC(=O)[C@H](CO)NC(=O)[C@H](Cc1ccc(O)cc1)NC(=O)[C@H](CC(=O)O)NC(=O)[C@H](CO)NC(=O)[C@@H](NC(=O)[C@](C)(Cc1ccccc1F)NC(=O)[C@@H](NC(=O)CNC(=O)[C@H](Cc1c[nH]cn1)NC(=O)C(C)(C)NC(=O)[C@@H](N)Cc1ccc(O)cc1)[C@@H](C)O)[C@@H](C)O)[C@@H](C)CC)C(=O)N[C@@H](C)C(=O)N[C@@H](CCC(N)=O)C(=O)N[C@@H](CCCCNC(=O)COCCOCCNC(=O)COCCOCCNC(=O)CC[C@H](NC(=O)CCCCCCCCCCCCCCCCCCC(=O)O)C(=O)O)C(=O)N[C@@H](CC(=O)O)C(=O)N[C@@H](Cc1ccccc1)C(=O)N[C@H](C(=O)N[C@@H](CCC(=O)O)C(=O)N[C@@H](Cc1c[nH]c2ccccc12)C(=O)N[C@@H](CC(C)C)C(=O)N[C@@H](CC(C)C)C(=O)N[C@@H](CCC(=O)O)C(=O)NCC(=O)NCC(=O)N1CCC[C@H]1C(=O)N[C@@H](CO)C(=O)N[C@@H](CO)C(=O)NCC(=O)N[C@@H](C)C(=O)N1CCC[C@H]1C(=O)N1CCC[C@H]1C(=O)N1CCC[C@H]1C(=O)N[C@@H](CO)C(=O)O)[C@@H](C)CC [HEC-PT66] (H-Y[Aib]HGT[αMePhe(2-F)]TSDYSILLDEIAQK([AEEA-AEEA-γGlu-C20 diacid])DFIEWLLEGGPSSGAPPPS-OH) | 0.213 | 7.14 | 12.3 |
| CC[C@H](C)[C@H](NC(=O)[C@H](Cc1ccccc1)NC(=O)[C@H](C)NC(=O)C(C)(C)NC(=O)[C@H](CCC(N)=O)NC(=O)[C@H](C)NC(=O)[C@H](CCCCNC(=O)COCCOCCNC(=O)CC[C@H](NC(=O)CCCCCCCCCCCCCCCCC(=O)O)C(=O)O)NC(=O)[C@H](CCC(=O)O)NC(=O)[C@H](CC(=O)O)NC(=O)[C@H](CC(C)C)NC(=O)[C@H](CC(C)C)NC(=O)[C@@H](NC(=O)[C@H](CO)NC(=O)[C@H](Cc1ccc(O)cc1)NC(=O)[C@H](CC(=O)O)NC(=O)[C@H](CO)NC(=O)[C@@H](NC(=O)[C@](C)(Cc1ccccc1F)NC(=O)[C@@H](NC(=O)CNC(=O)[C@H](CCC(N)=O)NC(=O)C(C)(C)NC(=O)[C@@H](N)Cc1ccc(O)cc1)[C@@H](C)O)[C@@H](C)O)[C@@H](C)CC)C(=O)N[C@@H](CCC(=O)O)C(=O)N[C@@H](Cc1ccc(O)cc1)C(=O)N[C@@H](CC(C)C)C(=O)N[C@@H](CC(C)C)C(=O)N[C@@H](C)C(=O)NCC(=O)NCC(=O)N1CCC[C@H]1C(=O)N[C@@H](CO)C(=O)N[C@@H](CO)C(=O)NCC(=O)N[C@@H](C)C(=O)N1CCC[C@H]1C(=O)N1CCC[C@H]1C(=O)N1CCC[C@H]1C(=O)N[C@@H](CO)C(N)=O [HEC-PT108] | 0.054 | 0.197 | 0.864 |
| CC[C@H](C)[C@H](NC(=O)[C@H](Cc1ccccc1)NC(=O)[C@H](C)NC(=O)[C@H](CCCNC(=N)N)NC(=O)[C@H](CCC(N)=O)NC(=O)[C@H](CCCNC(=N)N)NC(=O)[C@H](CCCCNC(=O)COCCOCCNC(=O)CC[C@H](NC(=O)CCCCCCCCCCCCCCCCC(=O)O)C(=O)O)NC(=O)[C@H](CCC(=O)O)NC(=O)[C@H](CC(=O)O)NC(=O)[C@H](CC(C)C)NC(=O)[C@H](CC(C)C)NC(=O)[C@@H](NC(=O)[C@H](CO)NC(=O)[C@H](Cc1ccc(O)cc1)NC(=O)[C@H](CC(=O)O)NC(=O)[C@H](CO)NC(=O)[C@@H](NC(=O)[C@](C)(Cc1ccccc1F)NC(=O)[C@@H](NC(=O)CNC(=O)[C@H](CCC(N)=O)NC(=O)C(C)(C)NC(=O)[C@@H](N)Cc1ccc(O)cc1)[C@@H](C)O)[C@@H](C)O)[C@@H](C)CC)C(=O)N[C@@H](CCC(=O)O)C(=O)N[C@@H](Cc1ccc(O)cc1)C(=O)N[C@@H](CC(C)C)C(=O)N[C@@H](CC(C)C)C(=O)N[C@@H](CCC(=O)O)C(=O)NCC(=O)NCC(=O)N1CCC[C@H]1C(=O)N[C@@H](CO)C(=O)N[C@@H](CO)C(=O)NCC(=O)N[C@@H](C)C(=O)N1CCC[C@H]1C(=O)N1CCC[C@H]1C(=O)N1CCC[C@H]1C(=O)N[C@@H](CO)C(=O)O [HEC-PT124] | 0.152 | 0.228 | 0.332 |
| CC[C@H](C)[C@H](NC(=O)[C@H](Cc1ccccc1)NC(=O)[C@H](C)NC(=O)[C@H](CCC(N)=O)NC(=O)[C@H](CCC(N)=O)NC(=O)[C@H](CCCNC(=N)N)NC(=O)[C@H](CCCCNC(=O)COCCOCCNC(=O)CC[C@H](NC(=O)CCCCCCCCCCCCCCCCCCC(=O)O)C(=O)O)NC(=O)[C@H](CCCNC(=N)N)NC(=O)[C@H](CC(=O)O)NC(=O)[C@H](CC(C)C)NC(=O)[C@H](CC(C)C)NC(=O)[C@@H](NC(=O)[C@H](CO)NC(=O)[C@H](Cc1ccc(O)cc1)NC(=O)[C@H](CC(=O)O)NC(=O)[C@H](CO)NC(=O)[C@@H](NC(=O)[C@](C)(Cc1ccccc1F)NC(=O)[C@@H](NC(=O)CNC(=O)[C@H](CCC(N)=O)NC(=O)C(C)(C)NC(=O)[C@@H](N)Cc1ccc(O)cc1)[C@@H](C)O)[C@@H](C)O)[C@@H](C)CC)C(=O)N[C@@H](CCC(=O)O)C(=O)N[C@@H](Cc1ccc(O)cc1)C(=O)N[C@@H](CC(C)C)C(=O)N[C@@H](CC(C)C)C(=O)N[C@@H](C)C(=O)NCC(=O)NCC(=O)N1CCC[C@H]1C(=O)N[C@@H](CO)C(=O)N[C@@H](CO)C(=O)NCC(=O)N[C@@H](C)C(=O)N1CCC[C@H]1C(=O)N1CCC[C@H]1C(=O)N1CCC[C@H]1C(=O)N[C@@H](CO)C(=O)O [HEC-PT128] | 0.0608 | 0.38 | 0.128 |
